Here are results for ten molecules from patent US20040136985A1, “Methods of modifying behavior of CD9-expressing cells” (priority 2002, published 2004).

“Also recorded” adds a separate entry of the source. Where two headings read alike, the source gives them in different places. Where no end group is shown, it is not given here.

One assay has as its system FN/CD9 interaction. Briefly: ELISA modified for effects of metal salts on the FN/CD9 interaction. Format: binding, human. The conditions noted are these: 0-4.5 mM metal salt. The protocol:
The standard ELISA assay format was modified to evaluate the effects of divalent and monovalent metal salts on the FN/CD9 interaction. The ELISA buffers contained 0.5 mM EGTA and metal salt was excluded from antigen plating and primary wash step. Antigen was plated in Buffer D. The plates were washed once with Buffer E and then blocked with Blocking Buffer 2. Subsequent steps up to and including the second wash after the FN overlay were done in Buffer F, which contained 0-4.5 mM metal salt. After the FN overlay, plates were washed once with Buffer F (+/−metal salt), then twice with Buffer G. The subsequent incubations and washes were performed with Buffer G.
For orientation: In an ELISA, binding on a coated surface is turned into a signal by an enzyme label.

Assay [1] deals with human coronary SMCs. Briefly: Verification that hydroxyurea prevents SMC proliferation (thymidine incorporation). Format: cell-based. Conditions: 5 mM hydroxyurea. How it is done:
(§1) Cell migration was measured via a monolayer-wounding assay, as described by Brown et al. (Circ Res. 84:655-667 (1999), which is hereby incorporated by reference in its entirety). Briefly, 100% confluent cells were treated with serum-free medium containing hydroxyurea (5 mM)(DMEM supplemented with 100 U/mL penicillin, 100 μg/mL streptomycin and 5 mM hydroxyurea) for 24 h before the start of experiments. Hydroxyurea was used to prevent cell proliferation and block the possible effect of CD9 on SMCs proliferation. The capacity of hydroxyurea to prevent proliferation was verified by showing that it inhibited thymidine incorporation by >99%. After incubation with hydroxyurea, cells were rinsed with DMEM (serum free), and a ≈1 mm wide scratch was made with a sterile 20 ul tip with the help of a ruler. After that, the cells were incubated in the DMEM medium. […] Plates were rinsed twice with PBS, and analyzed via computerized image analysis system (scion Image CMS-800). Cell migration was expressed as the distance migrated in the 24 hours (Chang et al., Circ. Res. 91(5):390-397 (2002), which is hereby incorporated by reference in its entirety). […]
(Incorporation of labelled thymidine or its analogues reports DNA synthesis.)

For assay [2], the target named is FN. Put plainly: ELISA for fibronectin binding to immobilized CD9, His6-rCD9 or peptide. The conditions noted are these: for soluble FN binding to immobilized peptide compared to intact platelet purified CD9: FN 75 μg/ml. Also noted: species or system human. The protocol:
(§2) All incubation periods for the CD9/FN binding ELISA lasted two hours at RT unless otherwise indicated. Immulon I (Dynatech) microtiter plate wells were coated with CD9 (2 μg/ml), His6-rCD9 (2 μg/ml), BSA (10 μg/ml), or peptide (10 μM) in Buffer A. After one wash with Buffer B, plates were blocked with Blocking Buffer 1.1% BSA was included in steps from ligand overlay to addition of mAb conjugate to minimize non-specific binding. Titrations of human plasma FN in Buffer B were added to plates either alone, or in the case of competition ELISAs, with 0-160 μM synthetic peptide. Plates were washed three times with ELISA Buffer B, followed by incubation with a 1/1000 dilution of rabbit anti-FN antibody. After two washes with Buffer B and one wash with Buffer C, plates were incubated with 1/500 antirabbit IgG alkaline phosphatase in Buffer C for one hour at RT. After four washes with Buffer C, 1 mg/mlp-nitrophenyl phosphate substrate was added and the absorbance at 405 nm was recorded.

Assay [3] concerns the target FN (Homo sapiens, UniProt P02751). Briefly: Surface plasmon resonance biosensor analysis of FN captured by anti-FN mAbs. Format: binding.
Assay [4] relates to mAb7 binding to CD9 expressed on CHO A6 cells. Put plainly: Flow cytometry: peptide blocking of mAb7 binding to CD9 on CHO A6 cells. Also noted: species or system human. Conditions: 100 μg peptide with 1 μg mAb7. The protocol: 100 μg of peptide 5a, 5, 5b, or 6a was incubated with 1 μg mAb7 for 30 minutes at room temperature. CD9 CHO cells (clone A6) were harvested, washed twice with PBS, and resuspended in labeling media (2.5×10^5 cells/mL); 4 μL mAb7-peptide solution was added to 2.5×10^5 cells and incubated for 1 hour at 4° C. MOPC2, and mAb7 alone were used as negative and positive controls, respectively. Cells were washed with PBS, resuspended in labeling media, and bound mAb7 was detected with a species-specific FITC-conjugated second antibody, followed by flow cytometry as described above.

The test system of a further assay is CHO A6 cells. Put plainly: Basic adhesion assay of CHO A6 cells on FN. Format: cell-based. The conditions noted are these: 0.5 μM peptide, 3 hours. The protocol: 24-well culture plate wells were coated with human plasma FN (10 μg/mL FN in PBS for 3 hours at 37° C.) and blocked with PBS, 3% bovine serum albumin (BSA) for 1 hour at 37° C. Mock- and CD9-CHO cells were harvested as described previously. After a 30-minute rest period at 37° C., 10^5 cells/well were seeded in FN-coated 24-well plates and incubated for 3 hours at 37° C. For some experiments, cells were incubated in the presence of 0.5 μM of peptides corresponding to amino acid sequences of CD9 EC2. Wells were washed 4 times with adhesion media, stained with modified Wright Giemsa, and adherent cells were counted in five randomly selected high-power fields of view per well using an inverted phase contrast microscope, Olympus IMT-2 (Olympus, Lake Success, N.Y.). All assays were run in triplicate, and the cell counts were reported as the number of adherent cells/mm^2 of well surface area. The mean number of adherent cells/mm^2±SE of 3 independent assays were reported (n=45).

The test system of another assay is CD9-CHO-B2 cells. Briefly: Adhesion of CD9-CHO-B2 cells (lacking integrin α5β1) to FN, peptide inhibition. The assay is classed as cell-based. Conditions: peptide 0.5 μM. How it is done:
CHO cell adhesion assays were done as described by Cook et al. (Exp. Cell. Res. 251:356-371 (1999), which is hereby incorporated by reference in its entirety). Briefly, 24-well cell culture plates (Coming, Acton, Mass.) were coated with FN (10 μg/ml) and blocked with PBS, 3% BSA. CHO cells were cell synchronized, harvested, and resuspended at 1×10^5 cell/ml in adhesion media (RPMI, 1% BSA). For peptide inhibition studies, peptides were added to CHO cell suspension to give a final concentration of 0.5 μM and cells were incubated at 37° C. for 30 minutes. 1 ml CHO cell suspension was added to each well and CHO cells were allowed to adhere for either 3 or 6 hours, then adherent cells were stained with Wright Giemsa and counted.

In another assay the test system is CD9-CHO cells. The assay is classed as cell-based. Conditions: FN coated inserts blocked with peptide (0.5 μM). How it is done:
The motility assays were performed using two methodologies. The first method was modified from Bauer et al. (J. Cell. Biol. 116:477-487 (1992), which is hereby incorporated by reference in its entirety). Cell cycle synchronized CHO cells were seeded into tissue culture plates, grown to approximately 50% confluency, and harvested. The cells were washed twice with Media A, adjusted to 4×10^5/ml, allowed to rest at 37° C. for 30 min in Media B, then transferred into modified Boyden chambers. The upper and lower chambers were separated by a polycarbonate filter, with 8 μm pores, pre-coated on the underside only with 10 μg/ml FN. After 3 or 6 hours, cells on the FN-coated side of the filters were fixed, stained with hematoxylin, and mounted onto slides. The total numbers of adherent cells from five high-powered fields (HPF) per filter were counted per time point per assay. The second method for assessing the motility of CD9-transfected CHO cells utilized 10 mm polycarbonate tissue culture inserts with 8 μm pores (Nunc, Rochester, N.Y.). Tissue culture inserts were coated on the underside with FN as described above for Boyden Chambers. […] CHO cells adhered to the FN-coated underside of tissue culture inserts were stained with Wrights Giemsa and the number of adherent cells in five random high power fields were counted per time point per assay. […]

For a further assay, the system named is FN-CD9 binding. Briefly: Competition ELISA: effect of peptides on FN binding to immobilized CD9. The arrangement: species or system human. How it is done: as §2
Assay [5] concerns human coronary SMCs. Put plainly: SMC migration, monolayer-wounding assay. The assay is classed as cell-based. Conditions: 2% serum, 24 h. The protocol:
as §1

[6] abbreviates: FN concentration, 2.5 mM Ca2+, read-out: half maximal binding with FN.

Usually inhibition stands for the percentage by which the read-out fell short of the control. Lower therefore signals a response near the control.

FN (Homo sapiens, UniProt P02751), sequence (P02751 32-2477): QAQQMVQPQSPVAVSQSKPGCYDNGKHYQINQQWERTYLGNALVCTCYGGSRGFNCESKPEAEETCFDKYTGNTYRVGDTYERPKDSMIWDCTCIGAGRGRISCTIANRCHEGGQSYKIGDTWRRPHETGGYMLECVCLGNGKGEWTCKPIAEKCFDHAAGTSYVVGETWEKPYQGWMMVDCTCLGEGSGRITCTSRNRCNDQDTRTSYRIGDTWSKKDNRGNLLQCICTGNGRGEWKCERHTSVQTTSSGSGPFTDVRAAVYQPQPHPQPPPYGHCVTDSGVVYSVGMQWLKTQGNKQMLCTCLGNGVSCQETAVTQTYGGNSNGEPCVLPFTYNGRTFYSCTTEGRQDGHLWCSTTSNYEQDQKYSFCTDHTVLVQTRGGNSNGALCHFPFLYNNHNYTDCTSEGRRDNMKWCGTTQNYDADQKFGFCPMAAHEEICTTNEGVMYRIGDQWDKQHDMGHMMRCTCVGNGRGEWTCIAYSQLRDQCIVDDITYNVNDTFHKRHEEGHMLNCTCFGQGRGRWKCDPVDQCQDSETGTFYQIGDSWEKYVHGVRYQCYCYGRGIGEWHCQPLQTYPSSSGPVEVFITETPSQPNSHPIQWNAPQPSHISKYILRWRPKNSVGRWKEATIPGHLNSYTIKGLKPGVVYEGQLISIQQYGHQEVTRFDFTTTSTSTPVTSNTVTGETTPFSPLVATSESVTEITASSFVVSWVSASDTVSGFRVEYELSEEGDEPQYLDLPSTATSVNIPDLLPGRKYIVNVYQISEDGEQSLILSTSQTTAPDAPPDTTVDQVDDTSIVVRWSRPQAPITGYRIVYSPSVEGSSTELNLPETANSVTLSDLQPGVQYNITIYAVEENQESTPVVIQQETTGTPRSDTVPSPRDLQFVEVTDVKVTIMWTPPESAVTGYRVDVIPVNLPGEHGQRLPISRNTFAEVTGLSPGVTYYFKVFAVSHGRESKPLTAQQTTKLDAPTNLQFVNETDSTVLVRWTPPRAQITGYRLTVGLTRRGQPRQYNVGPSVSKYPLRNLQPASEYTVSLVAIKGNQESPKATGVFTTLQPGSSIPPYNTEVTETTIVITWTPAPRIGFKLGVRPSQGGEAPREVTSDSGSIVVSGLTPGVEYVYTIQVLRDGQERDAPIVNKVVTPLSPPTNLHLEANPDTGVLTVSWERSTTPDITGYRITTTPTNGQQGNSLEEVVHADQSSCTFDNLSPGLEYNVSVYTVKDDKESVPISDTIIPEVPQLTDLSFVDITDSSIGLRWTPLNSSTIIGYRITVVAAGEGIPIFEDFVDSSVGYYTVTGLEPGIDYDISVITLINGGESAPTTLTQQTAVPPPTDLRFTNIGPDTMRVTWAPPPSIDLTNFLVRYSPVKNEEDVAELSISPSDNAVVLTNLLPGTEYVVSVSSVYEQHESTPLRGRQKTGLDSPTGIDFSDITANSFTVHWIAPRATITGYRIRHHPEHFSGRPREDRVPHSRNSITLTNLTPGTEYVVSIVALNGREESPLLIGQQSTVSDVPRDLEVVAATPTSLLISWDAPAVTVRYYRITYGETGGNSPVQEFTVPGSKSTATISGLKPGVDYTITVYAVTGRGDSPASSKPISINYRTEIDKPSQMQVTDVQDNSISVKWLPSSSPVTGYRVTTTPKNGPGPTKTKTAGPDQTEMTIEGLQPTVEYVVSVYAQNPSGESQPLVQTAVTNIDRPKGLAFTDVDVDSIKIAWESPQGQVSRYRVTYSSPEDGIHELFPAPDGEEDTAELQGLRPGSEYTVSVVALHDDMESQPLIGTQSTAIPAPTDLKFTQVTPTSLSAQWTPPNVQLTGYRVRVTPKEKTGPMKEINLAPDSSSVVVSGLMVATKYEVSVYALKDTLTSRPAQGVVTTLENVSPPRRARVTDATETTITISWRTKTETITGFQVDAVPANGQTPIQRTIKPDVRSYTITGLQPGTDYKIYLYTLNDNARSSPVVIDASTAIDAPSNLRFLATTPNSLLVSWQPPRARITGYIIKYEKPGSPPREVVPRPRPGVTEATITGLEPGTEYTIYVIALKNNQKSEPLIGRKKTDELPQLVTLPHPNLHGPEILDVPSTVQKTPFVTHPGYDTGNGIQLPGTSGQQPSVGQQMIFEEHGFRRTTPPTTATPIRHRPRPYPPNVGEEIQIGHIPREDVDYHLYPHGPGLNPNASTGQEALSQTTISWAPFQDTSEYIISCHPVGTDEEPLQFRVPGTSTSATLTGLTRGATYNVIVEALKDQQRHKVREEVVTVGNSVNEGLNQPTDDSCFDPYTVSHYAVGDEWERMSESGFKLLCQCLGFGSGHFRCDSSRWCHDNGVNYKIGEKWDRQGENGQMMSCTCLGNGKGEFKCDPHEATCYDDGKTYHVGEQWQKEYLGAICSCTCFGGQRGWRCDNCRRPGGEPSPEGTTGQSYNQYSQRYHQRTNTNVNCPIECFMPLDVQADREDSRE

Take `[Ca+2].[Cl-].[Cl-]` [CaCl2]: the “effect of cation on CD9/FN interaction” value with FN/CD9 interaction is “stimulated”.
`NC(=O)NO` [hydroxyurea] gave an inhibition at 5000 µM in the assay on human coronary SMCs [1] of over 99%.
As to “CD9: purified platelet CD9, 24 kDa integral membrane glycoprotein (SEQ ID NO: 1)”, on FN [2] (2.5 mM CaCl2, FN concentration), the “half-maximal binding of soluble FN to immobilized CD9” value worked out at 35.6 µg/mL. Further, the EC50 is 81 nM on FN [2] (2.5 mM CaCl2, FN concentration, read-out: half-maximal binding of soluble FN to immobilized CD9) and 81 nM on FN [2] (setting [6]). The Kd on FN [2] (platelet-derived or recombinant CD9, read-out: affinity of FN-CD9 interaction) stood at 80 nM. Also, the “association between captured FN and purified CD9” value with FN [3] was “specific association”.
Turning to “His6-rCD9: bacterially expressed histidine tagged recombinant CD9”, the EC50 on FN [2] (setting [6]) was 120 nM. Also, the “binding to FN lower than for purified CD9 (absolute ELISA values)” value in the assay with FN [2] (versus purified platelet CD9) came to 40%.
In the case of “KDEPQRETLKAIHYALNCCGLAGGVEQFISDICPKKDV [peptide 5b]”, in [4], the “blocking of mAb7 binding to cell surface CD9” value (shortened to “blocking of mAb7 binding”) was “blocked mAb7 binding to soluble CD9 and to CD9 on intact cells”. The “effect on adhesive phenotype of CHO A6 cells on FN” value (“effect on adhesive phenotype” below) in the assay on CHO A6 cells is given as “equivalent to that of CHO MOCK cells; also recorded: reversed the adhesive phenotype; also recorded: reversed the inhibitory influence of CD9”.
Take “KEFDFKAPSVCKVEDIDTKTL [peptide 6S, reference compound]”: the “effect on CD9-CHO-B2 cell adhesion to FN” value with CD9-CHO-B2 cells is listed as “no significant effect”. The “effect on CD9-mediated CHO cell motility to FN” value with CD9-CHO cells was “lack of inhibition”.
In the case of PKKDVLETFTVKSCPDAI [peptide 6a], the “blocking of mAb7 binding” value in assay [4] is recorded as “blocked mAb7 binding”. Further, the “effect on adhesive phenotype” value in the assay with CHO A6 cells was “equivalent to that of CHO MOCK cells; also recorded: reversed the inhibitory influence of CD9”.
For PKKDVLETFTVKSCPDAIKEVFDNK [peptide 6], in the assay with FN [2], the “direct binding of FN” value is recorded as “binds directly” and the “soluble FN binding to immobilized peptide compared to intact platelet purified CD9” value turned out to be 65%. The “inhibition of FN binding to CD9” value in the assay on FN-CD9 binding (peptide 0-160 μM) is “significantly inhibited; also recorded: competitively inhibited binding of FN to purified CD9 in a dose-dependent fashion; also recorded: partially inhibited”. Also, the “peptide concentration at maximal inhibition of FN binding to CD9” value with FN-CD9 binding (titration 0-160 μM) was determined as 60 µM. The “effect on CD9-CHO-B2 cell adhesion to FN” value in the assay on CD9-CHO-B2 cells is given as “able to block”. Moreover, in the assay on CD9-CHO-B2 cells (listed as Peptide 6), the “effect on CD9-CHO-B2 cell adhesion to FN” value is recorded as “inhibited the adhesion level of CD9-CHO-B2 cells on FN to that seen with Mock-CHO-B2 cells”. Besides, the “effect on CD9-mediated CHO cell motility to FN” value with CD9-CHO cells is reported as “competitively inhibited”. For the same molecule, the “blocking of mAb7 binding” value in assay [4] is “blocked mAb7 binding to soluble CD9 and to CD9 on intact cells”. In the assay with CHO A6 cells, the “effect on adhesive phenotype” value is listed as “reversed the adhesive phenotype”. In addition, in the assay on human coronary SMCs [5], the “effect on SMC migration” value is “dose dependent inhibitory effect”. Besides, the “maximal inhibitory effect on serum-induced migration” value with human coronary SMCs [5] (at 40 μM) was about 65%.
On to YKDTYNKLKTKDEPQRETLKAI [peptide 5], for which the “soluble FN binding to immobilized peptide compared to intact platelet purified CD9” value in the assay with FN [2] was 19%. The “blocking of mAb7 binding” value in assay [4] was “neither peptide 5a nor 5 blocked”. Also, the “effect on adhesive phenotype” value with CHO A6 cells is “no effect”.
With YSHKDEVIKEVQEFYKDTYNKLKT [peptide 5a], the “blocking of mAb7 binding” value in assay [4] is “neither peptide 5a nor 5 blocked”.
